From patent US9580449B2, “Compositions and methods for the production of pyrimidine and pyridine compounds with BTK inhibitory activity” (Merck Patent GmbH, priority 2011, dated 2017)

target: full-length human BTK (Homo sapiens (Human), UniProt Q06187); experiment: BTK IC50 enzyme assay (microfluidic off-chip mobility shift kinase assay); type: biochemical; conditions: incubated for 90 min. at 27 C; read-out: Time Dependent BTK Enzyme Assay IC50
In short: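 Read-out separates phosphorylated peptide product from substrate by charge/mass in a mobility shift format with full-length human BTK.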

Chain of full-length human BTK (Q06187 whole entry): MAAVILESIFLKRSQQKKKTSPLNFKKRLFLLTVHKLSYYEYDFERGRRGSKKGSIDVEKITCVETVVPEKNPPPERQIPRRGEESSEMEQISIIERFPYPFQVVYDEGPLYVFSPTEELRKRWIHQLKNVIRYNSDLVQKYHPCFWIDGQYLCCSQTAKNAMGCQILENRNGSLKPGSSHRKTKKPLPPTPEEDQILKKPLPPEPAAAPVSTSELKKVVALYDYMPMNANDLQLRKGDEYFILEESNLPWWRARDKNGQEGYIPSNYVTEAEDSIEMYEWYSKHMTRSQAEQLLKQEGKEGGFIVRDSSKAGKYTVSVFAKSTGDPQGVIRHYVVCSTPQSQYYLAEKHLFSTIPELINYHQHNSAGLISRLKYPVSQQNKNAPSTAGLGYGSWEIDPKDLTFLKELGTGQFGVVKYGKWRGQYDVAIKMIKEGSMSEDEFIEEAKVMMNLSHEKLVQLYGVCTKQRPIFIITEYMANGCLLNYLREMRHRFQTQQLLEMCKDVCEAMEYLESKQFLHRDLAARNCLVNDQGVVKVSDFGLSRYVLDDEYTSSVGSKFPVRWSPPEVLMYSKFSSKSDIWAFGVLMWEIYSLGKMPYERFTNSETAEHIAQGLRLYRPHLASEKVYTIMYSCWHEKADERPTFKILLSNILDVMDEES

IC50 [nM] | Structure (SMILES)
> 1000 | C=CC(=O)N1CC2(CC(Oc3ncnc(N)c3-c3ccc(Oc4cccnc4)cc3)C2)C1 [A221, 1-(6-((6-amino-5-(4-(pyridin-3-yloxy)phenyl)pyrimidin-4-yl)oxy)-2-azaspiro[3.3]heptan-2-yl)prop-2-en-1-one]
< 100 | Nc1ncnc(OC2CC3(C2)CN(C(=O)/C=C/CN2CC(F)C2)C3)c1-c1ccc(Oc2ccccc2)cc1 [A222, (E)-1-(6-((6-amino-5-(4-phenoxyphenyl)pyrimidin-4-yl)oxy)-2-azaspiro[3.3]heptan-2-yl)-4-(3-fluoroazetidin-1-yl)but-2-en-1-one]
< 1000 | Nc1ncnc(OC2CC3(C2)CN(C(=O)/C=C/CN2CC(F)(F)C2)C3)c1-c1ccc(Oc2ccccc2)cc1 [A223, (E)-1-(6-((6-amino-5-(4-phenoxyphenyl)pyrimidin-4-yl)oxy)-2-azaspiro[3.3]heptan-2-yl)-4-(3,3-difluoroazetidin-1-yl)but-2-en-1-one]
< 100 | CN(C)C/C=C/C(=O)N[C@H]1C[C@@H](Nc2ncnc(N)c2-c2ccc(Oc3ccccc3)cc2)C1 [A224, (E)-N-(1,3-cis-3-((6-amino-5-(4-phenoxyphenyl)pyrimidin-4-yl)amino)cyclobutyl)-4-(dimethylamino)but-2-enamide]
< 100 | C=CC(=O)N1CCC(F)(CNc2ncnc(N)c2-c2ccc(Oc3ccccc3)cc2)CC1 [A225, 1-(4-(((6-amino-5-(4-phenoxyphenyl)pyrimidin-4-yl)amino)methyl)-4-fluoropiperidin-1-yl)prop-2-en-1-one]
< 1000 | CN(C)C/C=C/C(=O)N1CCC2(CC(Nc3ncnc(N)c3-c3ccc(Oc4ccccc4)cc3)C2)C1 (stereo not shown) [A226, (E)-1-(2-((6-amino-5-(4-phenoxyphenyl)pyrimidin-4-yl)amino)-6-azaspiro[3.4]octan-6-yl)-4-(dimethylamino)but-2-en-1-one]
< 100 | CN(C)C/C=C/C(=O)N1CCC(F)(CNc2ncnc(N)c2-c2ccc(Oc3ccccc3)cc2)CC1 [A227, (E)-1-(4-(((6-amino-5-(4-phenoxyphenyl)pyrimidin-4-yl)amino)methyl)-4-fluoropiperidin-1-yl)-4-(dimethylamino)but-2-en-1-one]
< 1000 | CN(C)C/C=C/C(=O)N[C@H]1C[C@H](Nc2ncnc(N)c2-c2ccc(Oc3ccccc3)cc2)C1 [A228, (E)-N-(1,3-trans-3-((6-amino-5-(4-phenoxyphenyl)pyrimidin-4-yl)amino)cyclobutyl)-4-(dimethylamino)but-2-enamide]
> 1000 | Nc1ncnc(NCC2(F)CCN(C(=O)CCN3CCCCC3)CC2)c1-c1ccc(Oc2ccccc2)cc1 [A235, 1-(4-(((6-amino-5-(4-phenoxyphenyl)pyrimidin-4-yl)amino)methyl)-4-fluoropiperidin-1-yl)-3-(piperidin-1-yl)propan-1-one]
< 100 | C=CC(=O)Nc1cccc(-c2c(N)ncnc2Nc2ccc(Oc3ccccc3)cc2)c1 [A241, N-(3-(4-amino-6-((4-phenoxyphenyl)amino)pyrimidin-5-yl)phenyl)acrylamide]
< 100 | C=CC(=O)Nc1cccc(-c2c(Oc3ccc(Oc4ccccc4)cc3)ccnc2N)c1 [A243, N-(3-(2-amino-4-(4-phenoxyphenoxy)pyridin-3-yl)phenyl)acrylamide]
< 100 | C=CC(=O)Nc1cccc(Oc2ccnc(N)c2-c2ccc(Oc3ccccc3)cc2)c1 [A244, N-(3-((2-amino-3-(4-phenoxyphenyl)pyridin-4-yl)oxy)phenyl)acrylamide]
< 100 | CN(C)C/C=C/C(=O)Nc1cccc(-c2c(N)ncnc2Oc2ccc(Oc3ccccc3)cc2)c1 [A248, (E)-N-(3-(4-amino-6-(4-phenoxyphenoxy)pyrimidin-5-yl)phenyl)-4-(dimethylamino)but-2-enamide]
< 100 | C=CC(=O)Nc1cccc(Oc2ncnc(N)c2-c2ccc(OCc3ccccc3)cc2)c1 [A249, N-(3-((6-amino-5-(4-(benzyloxy)phenyl)pyrimidin-4-yl)oxy)phenyl)acrylamide]
< 100 | C=CC(=O)Nc1cccc(Oc2ncnc(N)c2-c2ccc(OCc3ccccc3OC)cc2)c1 [A254, N-(3-((6-amino-5-(4-((2-methoxybenzyl)oxy)phenyl)pyrimidin-4-yl)oxy)phenyl)acrylamide]
< 100 | C=CC(=O)Nc1cccc(Oc2ncnc(N)c2-c2ccc(OCc3ccccc3)c(OC)c2)c1 [A256, N-(3-((6-amino-5-(4-(benzyloxy)-3-methoxyphenyl)pyrimidin-4-yl)oxy)phenyl)acrylamide]
< 100 | C=CC(=O)Nc1cccc(Oc2ncnc(N)c2-c2ccc(OCc3ccccc3)c(F)c2F)c1 [A257, N-(3-((6-amino-5-(4-(benzyloxy)-2,3-difluorophenyl)pyrimidin-4-yl)oxy)phenyl)acrylamide]
< 100 | C=CC(=O)Nc1cccc(Oc2ncnc(N)c2-c2ccc(OCc3ccccc3)nc2)c1 [A259, N-(3-((6-amino-5-(6-(benzyloxy)pyridin-3-yl)pyrimidin-4-yl)oxy)phenyl)acrylamide]
< 100 | C=CC(=O)Nc1cccc(Oc2ncnc(N)c2-c2ccc(OCc3cccc(F)c3)cc2)c1 [A260, N-(3-((6-amino-5-(4-((3-fluorobenzyl)oxy)phenyl)pyrimidin-4-yl)oxy)phenyl)acrylamide]
< 100 | C=CC(=O)Nc1cccc(Oc2ncnc(N)c2-c2cnc(OCc3ccccc3)nc2)c1 [A261, N-(3-((6-amino-2′-(benzyloxy)-[5,5′-bipyrimidin]-4-yl)oxy)phenyl)acrylamide]

IC50 [nM] | Structure (SMILES)
< 1000 | C=CC(=O)N1CC=C(c2c(N)ncnc2Oc2ccc(Oc3ccccc3)cc2)CC1 [A263, 1-(4-(4-amino-6-(4-phenoxyphenoxy)pyrimidin-5-yl)-5,6-dihydropyridin-1(2H)-yl)prop-2-en-1-one]
< 100 | C=CC(=O)Nc1cccc(Oc2ncnc(N)c2-c2ccc(OCc3ccc(OC)cc3)cc2)c1 [A264, N-(3-((6-amino-5-(4-((4-methoxybenzyl)oxy)phenyl)pyrimidin-4-yl)oxy)phenyl)acrylamide]
< 100 | Nc1ncnc(Oc2cccc(NC(=O)/C=C/CN3CCOCC3)c2)c1-c1ccc(Oc2ccccc2)cc1 [A265, (E)-N-(3-((6-amino-5-(4-phenoxyphenyl)pyrimidin-4-yl)oxy)phenyl)-4-morpholinobut-2-enamide]
< 100 | C=CC(=O)Nc1cccc(-c2cnccc2Nc2ccc(Oc3ccccc3)cc2)c1 [A267, N-(3-(4-((4-phenoxyphenyl)amino)pyridin-3-yl)phenyl)acrylamide]
< 100 | C=CC(=O)Nc1cccc(Oc2ncnc(N)c2-c2ccc(Oc3ccccc3)nc2)c1 [A268, N-(3-((6-amino-5-(6-phenoxypyridin-3-yl)pyrimidin-4-yl)oxy)phenyl)acrylamide]
< 100 | C=CC(=O)N1CCCC(Nc2ncnc(N)c2-c2ccc(OCc3ccccc3)cc2)C1 (stereo not shown) [A269, 1-(3-((6-amino-5-(4-(benzyloxy)phenyl)pyrimidin-4-yl)amino)piperidin-1-yl)prop-2-en-1-one]
< 100 | C=CC(=O)Nc1cccc(Oc2ccncc2-c2ccc(Oc3ccccc3)cc2)c1 [A270, N-(3-((3-(4-phenoxyphenyl)pyridin-4-yl)oxy)phenyl)acrylamide]
< 100 | C=CC(=O)Nc1cccc(Oc2nc(N)ncc2-c2ccc(Oc3ccccc3)cc2)c1 [A271, N-(3-((2-amino-5-(4-phenoxyphenyl)pyrimidin-4-yl)oxy)phenyl)acrylamide]
< 100 | C=CC(=O)Nc1cccc(-c2c(Oc3ccc(Oc4ccccc4)cc3)ccnc2C(N)=O)c1 [A272, 3-(3-acrylamidophenyl)-4-(4-phenoxyphenoxy)picolinamide]
< 100 | C=CC(=O)N1CCC=C(c2c(N)ncnc2Nc2ccc(Oc3ccccc3)cc2)C1 [A273, 1-(3-(4-amino-6-((4-phenoxyphenyl)amino)pyrimidin-5-yl)-5,6-dihydropyridin-1(2H)-yl)prop-2-en-1-one]
< 100 | Nc1ncnc(Oc2ccc(Oc3ccccc3)cc2)c1-c1cccc(NC(=O)/C=C/CN2CCOCC2)c1 [A274, (E)-N-(3-(4-amino-6-(4-phenoxyphenoxy)pyrimidin-5-yl)phenyl)-4-morpholinobut-2-enamide]
< 100 | C=CC(=O)Nc1cccc(Oc2ncnc(N)c2-c2ccc(F)c(OC)c2)c1 [A277, N-(3-((6-amino-5-(4-fluoro-3-methoxyphenyl)pyrimidin-4-yl)oxy)phenyl)acrylamide]
< 100 | C=CC(=O)Nc1cccc(Oc2ncnc(N)c2-c2ccc(C(C)(C)O)cc2)c1 [A278, N-(3-((6-amino-5-(4-(2-hydroxypropan-2-yl)phenyl)pyrimidin-4-yl)oxy)phenyl)acrylamide]
< 100 | C=CC(=O)N1CCC=C(c2c(N)ncnc2Oc2ccc(Oc3ccccc3)cc2)C1 [A279, 1-(3-(4-amino-6-(4-phenoxyphenoxy)pyrimidin-5-yl)-5,6-dihydropyridin-1(2H)-yl)prop-2-en-1-one]
< 100 | C=CC(=O)Nc1ccc(Oc2ncnc(N)c2-c2ccc(Oc3ccccc3)cc2)cc1 [A280, N-(4-((6-amino-5-(4-phenoxyphenyl)pyrimidin-4-yl)oxy)phenyl)acrylamide]
< 1000 | C=CC(=O)Nc1ccc(-c2cnccc2Oc2ccc(Oc3ccccc3)cc2)cc1 [A281, N-(4-(4-(4-phenoxyphenoxy)pyridin-3-yl)phenyl)acrylamide]
< 100 | CN(C)C/C=C/C(=O)Nc1cccc(-c2cnccc2Oc2ccc(Oc3ccccc3)cc2)c1 [A282, (E)-4-(dimethylamino)-N-(3-(4-(4-phenoxyphenoxy)pyridin-3-yl)phenyl)but-2-enamide]
< 1000 | C=CC(=O)Nc1cccc(-c2cncnc2Nc2ccc(Oc3ccccc3)cc2)c1 [A283, N-(3-(4-((4-phenoxyphenyl)amino)pyrimidin-5-yl)phenyl)acrylamide]
< 1000 | C=CC(=O)N1CCCC(Nc2ncncc2-c2ccc(Oc3ccccc3)cc2)C1 (stereo not shown) [A284, 1-(3-((5-(4-phenoxyphenyl)pyrimidin-4-yl)amino)piperidin-1-yl)prop-2-en-1-one]
< 1000 | C=CC(=O)Nc1cccc(Oc2ncnc(N)c2-c2ccc(C(=O)N3CCCC3)cc2)c1 [A285, N-(3-((6-amino-5-(4-(pyrrolidine-1-carbonyl)phenyl)pyrimidin-4-yl)oxy)phenyl)acrylamide]
